Experimental data from the NIST ThermoML archive (doi:10.1021/je200673a).

Assay: molar heat capacity at constant pressure
Details: 101.33 kPa, Crystal, Vacuum adiabatic calorimetry

C(#Cc1ccccc1)c1ccccc1 [1,2-diphenylethyne]
Details	molar heat capacity at constant pressure [J/K/mol]
122.93 K	102.01
123.75 K	102.53
124.57 K	103.09
125.39 K	103.65
126.22 K	103.97
127.04 K	104.54
127.87 K	104.88
128.69 K	105.58
129.52 K	106.14
130 K	106.33
130.34 K	106.59
131.19 K	107.21
132.02 K	107.62
132.85 K	107.99
133.68 K	108.55
134.51 K	108.88
135.34 K	109.34
136.17 K	110.18
137.01 K	110.88
137.84 K	111.19
138.67 K	111.61
139.51 K	112.13
140 K	112.5
140.35 K	112.75
141.18 K	113.14
142.02 K	113.86
142.86 K	114.26
143.7 K	114.81
144.56 K	115.47
145.4 K	115.88
146.24 K	116.41
147.08 K	117.03
147.93 K	117.53
148.77 K	118.01
149.61 K	118.61
150 K	118.79
150.46 K	119.09
151.31 K	119.49
152.15 K	120.1
153 K	120.73
153.85 K	121.21
154.7 K	121.63
155.55 K	122.47
156.4 K	122.86
157.25 K	123.14
158.14 K	124.01
158.99 K	124.43
159.85 K	125.3
160 K	125.14
160.7 K	125.66
161.56 K	125.9
162.42 K	126.63
163.28 K	127.28
164.14 K	127.86
165 K	128.31
165.86 K	128.78
166.72 K	129.29
167.58 K	130.02
168.45 K	130.59
169.31 K	131.32
170 K	131.53
170.18 K	131.71
171.05 K	132.15
171.96 K	132.79
172.83 K	133.42
173.7 K	133.85
174.57 K	134.6
175.44 K	135.11
176.31 K	135.5
177.19 K	135.99
178.06 K	136.73
178.94 K	137.42
179.82 K	137.82
180 K	138
180.7 K	138.43
181.58 K	138.91
182.46 K	139.54
183.34 K	140.11
184.22 K	140.8
185.11 K	141.42
186.05 K	142.12
186.93 K	142.62
187.82 K	143.19
188.71 K	143.74
189.6 K	144.35
190 K	144.57
190.5 K	144.84
191.39 K	145.31
192.29 K	146.01
193.18 K	146.68
194.08 K	147.37
194.98 K	147.95
196.78 K	149.26
197.68 K	149.46
198.59 K	150.29
199.5 K	151.03
200 K	151.06
200.7 K	151.27
202.04 K	151.99
203.39 K	152.98
204.73 K	154.54
206.08 K	154.9
207.42 K	155.84
208.77 K	156.73
210 K	157.57
210.11 K	157.51
211.46 K	158.55
212.8 K	159.5
214.14 K	160.32
215.49 K	161.29
216.83 K	162.37
218.17 K	163
219.51 K	164.34
220 K	164.63
220.86 K	165.39
222.28 K	166.49
